From the NIST ThermoML archive (doi:10.1021/je700699u)

Test: cn = amount concentration of the nth substance listed, in mol/dm3
Details: 101 kPa, Liquid

CSCCC(N)C(=O)[O-].[K+] (stereo not drawn) [potassium salt of DL-methionine] + O
Details | mass density, 298.15 K [kg/m3] | mass density, 303.15 K [kg/m3] | mass density, 313.15 K [kg/m3] | mass density, 323.15 K [kg/m3] | mass density, 333.15 K [kg/m3] | viscosity, 298.15 K [mPa·s] | viscosity, 303.15 K [mPa·s] | viscosity, 313.15 K [mPa·s] | viscosity, 323.15 K [mPa·s] | viscosity, 333.15 K [mPa·s]
c1 = 0.252 | 1016 | 1014 | 1010 | 1006 | 1003 | 0.987 | 0.884 | 0.722 | 0.608 | 0.519
c1 = 0.503 | 1033 | 1032 | 1027 | 1023 | 1020 | 1.109 | 0.987 | 0.806 | 0.675 | 0.575
c1 = 0.732 | 1051 | 1049 | 1044 | 1039 | 1037 | 1.263 | 1.125 | 0.909 | 0.754 | 0.64
c1 = 0.994 | 1067 | 1065 | 1060 | 1055 | 1053 | 1.425 | 1.264 | 1.019 | 0.84 | 0.708
c1 = 1.252 | 1084 | 1083 | 1077 | 1072 | 1069 | 1.654 | 1.478 | 1.161 | 0.952 | 0.799
c1 = 1.479 | 1100 | 1098 | 1093 | 1087 | 1085 | 1.883 | 1.657 | 1.316 | 1.071 | 0.893

NCCC(=O)[O-].[K+] [potassium Salt of B-alanine] + O
Details | mass density, 298.15 K [kg/m3] | mass density, 303.15 K [kg/m3] | mass density, 313.15 K [kg/m3] | mass density, 323.15 K [kg/m3] | mass density, 333.15 K [kg/m3] | viscosity, 298.15 K [mPa·s] | viscosity, 303.15 K [mPa·s] | viscosity, 313.15 K [mPa·s] | viscosity, 323.15 K [mPa·s] | viscosity, 333.15 K [mPa·s]
c1 = 0.496 | 1026 | 1024 | 1020 | 1017 | 1011 | 1.05 | 0.944 | 0.762 | 0.638 | 0.546
c1 = 1.003 | 1053 | 1053 | 1048 | 1043 | 1038 | 1.23 | 1.097 | 0.892 | 0.744 | 0.634
c1 = 1.492 | 1079 | 1078 | 1074 | 1070 | 1065 | 1.453 | 1.293 | 1.049 | 0.871 | 0.737
c1 = 2.019 | 1107 | 1106 | 1100 | 1096 | 1090 | 1.759 | 1.548 | 1.25 | 1.027 | 0.866
c1 = 2.492 | 1133 | 1131 | 1126 | 1121 | 1116 | 2.131 | 1.881 | 1.497 | 1.223 | 1.022
c1 = 2.964 | 1157 | 1155 | 1150 | 1145 | 1140 | 2.609 | 2.293 | 1.808 | 1.464 | 1.217
c1 = 3.417 | 1181 | 1179 | 1174 | 1169 | 1162 | 3.245 | 2.832 | 2.209 | 1.77 | 1.459

CNCC(=O)[O-].[K+] [potassium Salt of sarcosine] + O
Details | mass density, 298.15 K [kg/m3] | mass density, 303.15 K [kg/m3] | mass density, 313.15 K [kg/m3] | mass density, 323.15 K [kg/m3] | mass density, 333.15 K [kg/m3] | viscosity, 298.15 K [mPa·s] | viscosity, 303.15 K [mPa·s] | viscosity, 313.15 K [mPa·s] | viscosity, 323.15 K [mPa·s] | viscosity, 333.15 K [mPa·s]
c1 = 0.51 | 1024 | 1023 | 1019 | 1015 | 1010 | 1.018 | 0.913 | 0.748 | 0.627 | 0.538
c1 = 1.01 | 1051 | 1049 | 1045 | 1041 | 1036 | – | – | – | – | –
c1 = 1.019 | – | – | – | – | – | 1.185 | 1.06 | 0.876 | 0.759 | 0.614
c1 = 1.534 | 1077 | 1074 | 1070 | 1065 | 1060 | 1.408 | 1.252 | 1.005 | 0.833 | 0.703
c1 = 2.019 | 1103 | 1100 | 1096 | 1091 | 1085 | 1.663 | 1.466 | 1.18 | 0.968 | 0.811
c1 = 2.445 | 1124 | 1121 | 1117 | 1111 | 1106 | 1.959 | 1.707 | 1.356 | 1.098 | 0.919
c1 = 2.987 | 1150 | 1148 | 1143 | 1138 | 1132 | 2.493 | 2.185 | 1.721 | 1.395 | 1.115

O=C([O-])[C@@H]1CCCN1.[K+] [potassium L-prolinate] + O
Details | mass density, 298.15 K [kg/m3] | mass density, 303.15 K [kg/m3] | mass density, 313.15 K [kg/m3] | mass density, 323.15 K [kg/m3] | mass density, 333.15 K [kg/m3] | viscosity, 298.15 K [mPa·s] | viscosity, 303.15 K [mPa·s] | viscosity, 313.15 K [mPa·s] | viscosity, 323.15 K [mPa·s] | viscosity, 333.15 K [mPa·s]
c1 = 0.507 | 1028 | 1027 | 1023 | 1019 | 1014 | 1.107 | 0.986 | 0.799 | 0.664 | 0.565
c1 = 1.01 | 1059 | 1057 | 1053 | 1048 | 1043 | 1.4 | 1.242 | 0.992 | 0.816 | 0.685
c1 = 1.523 | 1089 | 1087 | 1082 | 1077 | 1072 | 1.811 | 1.59 | 1.251 | 1.017 | 0.846
c1 = 2.01 | 1118 | 1115 | 1110 | 1105 | 1100 | 2.365 | 2.061 | 1.599 | 1.286 | 1.061
c1 = 2.521 | 1146 | 1144 | 1138 | 1133 | 1127 | 3.163 | 2.721 | 2.076 | 1.636 | 1.331
c1 = 2.983 | 1171 | 1168 | 1162 | 1156 | 1150 | 4.112 | 3.516 | 2.664 | 2.068 | 1.658
c1 = 3.448 | 1197 | 1194 | 1188 | 1182 | 1176 | 5.732 | 4.837 | 3.587 | 2.767 | 2.181

NCCCCCC(=O)[O-].[K+] [potassium Salt of 6-aminohexanoic acid] + O
Details | mass density, 298.15 K [kg/m3] | mass density, 303.15 K [kg/m3] | mass density, 313.15 K [kg/m3] | mass density, 323.15 K [kg/m3] | mass density, 333.15 K [kg/m3] | viscosity, 298.15 K [mPa·s] | viscosity, 303.15 K [mPa·s] | viscosity, 313.15 K [mPa·s] | viscosity, 323.15 K [mPa·s] | viscosity, 333.15 K [mPa·s]
c1 = 0.497 | 1024 | 1022 | 1018 | 1014 | 1009 | 1.191 | 1.058 | 0.854 | 0.706 | 0.599
c1 = 1.002 | 1049 | 1048 | 1044 | 1038 | 1034 | 1.608 | 1.418 | 1.126 | 0.913 | 0.762
c1 = 1.429 | 1072 | 1070 | 1067 | 1061 | 1057 | 2.152 | 1.882 | 1.497 | 1.199 | 0.987
c1 = 1.982 | 1098 | 1095 | 1089 | 1084 | 1078 | 3.091 | 2.669 | 2.035 | 1.608 | 1.307
c1 = 2.458 | 1119 | 1117 | 1111 | 1105 | 1098 | 4.445 | 3.796 | 2.85 | 2.211 | 1.768
c1 = 2.942 | 1141 | 1139 | 1132 | 1126 | 1118 | 6.601 | 5.573 | 4.112 | 3.145 | 2.458
